Assay results taken from patent US10799521B2, “Use of icaritin in preparing medicament for preventing or treating hematocytopenia” (Lunan Pharmaceutical Group Corporation, priority 2013, dated 2020).

Tests used:
[1] = system: tumor-bearing mice (mice ascites tumor s180 cells); test: Effect on chemotherapy-induced bone marrow suppression in tumor-bearing mice (routine blood test); assay type: in vivo, Kunming mice; details: after 10 days once daily, docetaxel 75 mg/m^2/d iv, Tegafur/Gimeracil/Oteracil capsules 222.2 mg/m^2/d intragastric, icaritin 10 mg/kg/d iv
Procedure: Mice ascites tumor s180 cells were conventionally incubated in 1640 culture medium, at 37° C., 5% CO2, and passaged once every two days in average. The cells in the logarithmic growth phase were prepared into a single-cell suspension having a density of 3.0×10^7 cells/ml with normal saline, which was injected into the abdominal cavities of mice under sterile conditions. Seven days after inoculation, significant swelling of the abdominal cavities of mice can be seen. As this time, the mice were executed by cervical vertebra luxation, put into a beaker containing 75% ethanol and soaked for 2-3 minutes. The sterilized mice were placed into an ultraclean bench, and the abdomens were exposed. The ascites was drawn with a sterile syringe and put into a sterile reagent bottle for further use. The above ascites was counted with trypan blue, diluted with normal saline to adjust to 2.0×10^7 cells/ml, and inoculated at the right armpit of the mice with 0.2 ml for each mouse. The inoculated mice were randomly divided into 6 groups, with 10 animals in each group and half male and half female. Group 1, the model control group: the test animals were intraperitoneally injected with0.9% normal saline (same for the following experiments); Group 2, the docetaxel group: 75 mg/m^2/d of docetaxel; Group 3, the Tegafur, Gimeracil and Oteracil Potassium Capsules group: 222.2 mg/m^2/d of Tegafur, Gimeracil and Oteracil Potassium Capsules; Group 4, the icaritin group: 10 mg/kg/d of the icaritin microemulsion formulation; Group 5, the D+I group (docetaxel+icaritin group): 75 mg/m^2/d of docetaxel+[…] of icaritin; Group 6, the T +I group (Tegafur, Gimeracil and Oteracil Potassium Capsules+icaritin group): 222.2 mg/m^2/d of Tegafur, Gimeracil and Oteracil Potassium Capsules+10 mg/kg/d of icaritin. Docetaxel and icaritin were administered by tail intravenous injection with an administration volume of 10 ml/kg for each. Tegafur, Gimeracil and Oteracil Potassium Capsules was intragastrically administered with an administration volume of 40 ml/kg. Each group was administered once a day for totally 10 days. During the test, the animals were observed every day for their food and water uptake, survival conditions and behaviors, and measured for their body weights every day. After the test was ended, the mice were anaesthetized and anatomized. Blood was collected from abdominal aorta for routine blood test, and the total number of white blood cells, the total number of platelets and the total number of neutrophils were determined.

[2] = design: species or system Kunming mice; details: mouse, in vivo
Procedure: Mice ascites tumor s180 cells were conventionally incubated in 1640 culture medium, at 37° C., 5% CO2, and passaged once every two days in average. The cells in the logarithmic growth phase were prepared into a single-cell suspension having a density of 3.0×10^7 cells/ml with normal saline, which was injected into the abdominal cavities of mice under sterile conditions. Seven days after inoculation, significant swelling of the abdominal cavities of mice can be seen. As this time, the mice were executed by cervical vertebra luxation, put into a beaker containing 75% ethanol and soaked for 2-3 minutes. The sterilized mice were placed into an ultraclean bench, and the abdomens were exposed. The ascites was drawn with a sterile syringe and put into a sterile reagent bottle for further use. The above ascites was counted with trypan blue, diluted with normal saline to adjust to 2.0×10^7 cells/ml, and inoculated at the right armpit of the mice with 0.2 ml for each mouse.
The inoculated mice were randomly divided into 6 groups, with 10 animals in each group and half male and half female.
Docetaxel and icaritin were administered by tail intravenous injection with an administration volume of 10 ml/kg for each. Tegafur, Gimeracil and Oteracil Potassium Capsules was intragastrically administered with an administration volume of 40 ml/kg. Each group was administered once a day for totally 10 days. During the test, the animals were observed every day for their food and water uptake, survival conditions and behaviors, and measured for their body weights every day. After the test was ended, the mice were anaesthetized and anatomized. Blood was collected from abdominal aorta for routine blood test, and the total number of white blood cells, the total number of platelets and the total number of neutrophils were determined.

NOD/Ltj mice = test: Effect on the white blood cells and platelets in NOD mice; assay type: in vivo; details: 15 days
Procedure: Non-obese diabetic (NOD) mice are a large mouse strains, including NOD/Scid, NOD/Ltj mice, etc. The NOD/Ltj mice used in this experiment are mice with an abnormal immune system in which platelets and white blood cells are obviously lower than those in normal mice.
5-Week-old healthy NOD mice, after adaptive feeding for one week, were randomly divided into 4 groups:
Group I was the blank control group, totally 13 mice; and was administered intragastrically with normal saline in the same volume of interleukin daily;
Group II was the positive control group, totally 13 mice, and was administered intragastrically with 10.0 mg/kg of interleukin daily;
Group III was the low-dose icaritin group, totally 13 mice, and was administered intragastrically with 30 mg/kg of icaritin daily;
Group IV was the high-dose icaritin group, totally 13 mice, and was administered intragastrically with 60 mg/kg of icaritin daily.
Each group was administered once a day for consecutively 15 days. The mice were anaesthetized (with 3% pentobarbital sodium, by intraperitoneal injection, at 0.1-0.15 ml per animal). 1 ml of blood wass sampled from abdominal aorta into an anticoagulation tube for routine blood test.

chronic ITP model rats = test: Thrombin time, prothrombin time and partial thromboplastin time in chronic ITP model rats; assay type: in vivo, Wistar rats; details: high- and medium-dose groups, P<0.05
Procedure: Establishment of chronic ITP model: Wistar rats were selected to establish the model by injecting rabbit anti-rat platelet serum (APS). […] 50 Rats in which the model was successfully established were selected, weighed, and randomly divided into 5 groups, i.e. the model control group, the icariin group (positive control group), and the icaritin administration groups (high-, medium- and low-dose groups), with 10 rats in each group. The groups were administered with the following therapeutic agents, respectively.

[3] = system: active immune thrombocytopenia mice; test: Active immune thrombocytopenia in mice (platelets in peripheral blood); assay type: in vivo, Balb/C mice; details: x ± s
Procedure: 72 Balb/C mice were selected, weighed, and randomly divided into […] administration groups, i.e. the normal group, the model control group, the icariin group (positive control group), and the icaritin administration groups (high-, medium-, and low-dose groups), with 12 mice in each group. […] On the second day after the model was established, each group was administered with the following therapeutic agents: The normal group: administered intragastrically with the same volume of normal saline; The model control group: administered intragastrically with the same volume of normal saline; The […]: […]; The high-dose icaritin group: […] Example 9; The medium-dose icaritin group: […] Example 9; The low-dose icaritin group: […] Each of the administration groups was administered once a day and fed normally. After establishing the model three times, each administration group was continued to be administered for one week. The mice were anesthetized, and blood was sampled to measure the number of platelets and determine the effect of icaritin on the number of platelets (PLT) in the peripheral blood.

[4] = high dose 60 mg/kg intragastrically daily
[5] = low dose 30 mg/kg intragastrically daily

COc1ccc(-c2oc3c(CC=C(C)C)c(O)cc(O)c3c(=O)c2O)cc1 [Icaritin]
Neutrophils [1]: 1.316 ± 0.15^#**^$$ 10^9/L | Platelets [1]: 687.4 ± 37.2^## 10^9/L | White blood cells [1]: 3.530 ± 0.31^##**^$$ 10^9/L | Body weight Before Administration [2]: 21.1 ± 3.0 g | Platelets (NOD/Ltj mice; [4]): 780.2 ± 46.5 ^##$$ 10^9/L | White blood cells (NOD/Ltj mice; [4]): 4.225 ± 0.51^##$ 10^9/L | Platelets (NOD/Ltj mice; [5]): 730.5 ± 34.6^##$ 10^9/L | White blood cells (NOD/Ltj mice; [5]): 3.242 ± 0.45 ^#$ 10^9/L | partial thromboplastin time (APTT) (chronic ITP model rats): significantly shorten | prothrombin time (PT) (chronic ITP model rats): significantly shorten | thrombin time (TT) (chronic ITP model rats): significantly shorten | PLT ([3]; high dose 100 mg/kg intragastric (tablets of Example 9)): 1193.4 ± 95.4 10^9/L | PLT ([3]; low dose 10 mg/kg intragastric (tablets of Example 9)): 862.7 ± 75.6 10^9/L | PLT ([3]; medium dose 50 mg/kg intragastric (tablets of Example 9)): 983.5 ± 85.7 10^9/L
